US20090012148A1, “REDUCING CELLULAR CHOLESTEROL LEVELS AND/OR TREATING OR PREVENTING PHOSPHOLIPIDOSIS” (priority 2005, published 2009)

Columns and labels:
[1] = test system: CT60 cells; test: Filipin binding assay, average filipin intensity and staining pattern; assay type: cell-based, Chinese hamster; conditions: for Average Filipin Assay @ 10 μM dose Fraction of Control: compounds from secondary library
Protocol: We developed assays for correction of the NPC phenotype in CHO cell lines using filipin, which binds to non-esterified cholesterol and has been used to visualize the free cholesterol content in NPC cells. The initial screens were carried out in CT60 cells, which express a mutated hamster NPC1 protein and a gain of function mutation in SCAP (42). These cells cannot traffic LDL-derived cholesterol out of late endosomes, and large amounts of cholesterol accumulate in LSO compartments. FIGS. 1A-B show images of filipin staining in a control CHO cell line, TRVb1 (45) (FIG. 1A) and in CT60 cells (FIG. 1B). It can be seen that the CT60 cells show much more filipin staining than control cells and that the fluorescence in CT60 cells is concentrated in peri-nuclear organelles.
For screening, images were acquired using a Discovery-1 automated microscopy system with a 10× objective and corrected for background and shading as described in Methods. Two thresholds were set for filipin staining, a low threshold to include all cell areas, and a high threshold for the strong filipin staining in the peri-nuclear LSOs. The threshold values were set for each plate from analysis of 64 images in 32 wells of untreated CT60 cells. […] In developing the low threshold, we compared the outlines based on the thresholded cell images with transmitted light images, and the thresholds provided good agreement with the transmitted light cell boundaries.
As a simple measure of the intensity of filipin staining, we measured the filipin intensity per pixel above the threshold. The conditions of filipin labeling (time and concentration) were adjusted to optimize the discrimination between the CT60 cells and control TRVb1 cells. […] The quality of the assay for screening is expressed in terms of a statistical parameter Z′(46):
Using the above screening technique, we screened a library of 14,956 compounds added to cells for 16 hours at a final concentration of 10 μM, using a single well for each compound. Prior to application of the compounds, cells were grown in normal tissue culture medium containing 10% FBS, so the LSOs were filled with cholesterol (FIG. 1B). The cells were then imaged and analyzed using the average filipin intensity assay and the LSO compartment assay. In general, the two analyses identified similar compounds that reduced the filipin labeling.
Compound addition: The library compounds were formatted for screening in the Rockefeller University High Throughput Screening Facility. Cells were treated with the compounds from the chemical library one day after plating. We added […] of each compound (5 mM stock in DMSO) to 25 μl of screening Medium S composed of medium A supplemented with 1% FBS and 20 mM 4-(2-hydroxyethyl)-1-pipiperazine ethane sulphonic acid (HEPES) in Falcon 384-well V-bottomed polypropylene plates using a Packard MiniTrak™ robotic liquid handling system. To obtain ˜10 μM final concentration, 23 μl of the premixed compounds were dispensed into the plates containing cells and […] of culture medium A. For primary screening, 352 test compounds were added to each plate, and the remaining 32 wells were used as a control with only DMSO added. All plates were incubated with compounds for 16 h at 37° C. Plates were then washed three times with phosphate buffered saline pH 7.4 (PBS) using a Bio-Tek Elx405 plate washer (Bio-Tek Instruments Inc., Winooski, Vt.). For each wash cycle, […] of PBS was dispensed followed by aspiration with a residual volume of 16 μl per well. Finally, cells were fixed with 1.5% PFA in PBS for 20 min at room temperature, followed by 3 more washes with PBS.
Fluorescence labeling. To the fixed cells, filipin was added at a final concentration of 50 μg/ml in PBS for 45 m at room temperature to label free cholesterol. Cells were finally washed three times with PBS, and images were acquired immediately after labeling. […]

[2] = test system: CT60 cells; test: Filipin binding assay, LSO compartment ratio (dose dependence, time course); assay type: cell-based, Chinese hamster
Text: Although the intensity assay was potentially useful, it seemed that additional information in the images could provide better discrimination of wild type vs. NPC cells. For this purpose, we took advantage of the spatial distribution of the filipin labeling of the LSOs, which cluster near the nucleus (FIG. 1B). We applied the second, higher threshold for this bright cluster. We then measured the total fluorescence intensity in the selected LSO objects (high threshold, FIG. 2C) divided by the total number of pixels in cells (low threshold, FIG. 2D).
Image analysis: Images of filipin-stained cells were analyzed using Metamorph Discovery-1 image analysis software. Two different image analysis assays were developed: (1) Average filipin intensity assay and (2) LSO compartment ratio assay. First, to correct for shading an image was created by averaging all of the images from a plate and smoothing the averaged image using a low pass filter. Then each pixel in an image was multiplied by the average intensity of the shading image, and the resulting pixel intensities were divided by the shading image on a pixel-by-pixel basis. Background was subtracted from each shading-corrected image by determining the 5th percentile intensity value of the image and subtracting this value from each pixel in the image. At the plating density used, all fields had at least 5% of the imaged areas that was cell-free. Next, two different thresholds were applied to the filipin images. For the first, a low threshold was set to include all areas occupied by cells. […] A second, higher threshold was set for brightly stained regions in CT60 and/or CT43 cells by selecting bright areas of filipin staining, with the intention of mainly identifying the LSOs in the perinuclear region of the cells. For the Average filipin intensity assay, using the low threshold alone, we measured total filipin intensity above the low threshold divided by the number of pixels above the lower threshold for each field. This gave an average filipin intensity per cell area. For the LSO compartment ratio we measured the total filipin intensity selectively in the region above the higher threshold divided by the number of pixels in the lower threshold. This gave a measure of the total intensity of LSO filipin per cell area.
Dose Dependence: Using the same methods as for the screening, compounds were tested at 10 μM, 3.33 μM, 1.11 μM, 370 nM and 123 nM in four wells each. Batches of selected compounds were purchased from Chemical Diversity, and 10 mM stocks in DMSO were made. A secondary stock plate of 2× concentration (20 μM, 6.66 μM, 2.22 μM, 740 nM and 246 nM) of compounds was prepared in screening medium S. To obtain the final concentrations, […] of this secondary stock was added to the cells in each well containing 30 μl of growth medium A supplemented with 10% FBS. The final DMSO concentration (0.2% v/v) was the same in all wells. Cells were plated at 650 cells per well in 30 μl of growth medium A supplemented with 10% FBS in Costar 384 well plates. After 20 h of incubation in the presence of the compounds, cells were washed with PBS, fixed with PFA and stained with filipin as described for the screening assay. Dose dependence determination of the initial 14 hit compounds from the primary library was done at least 5 times in CT60 cells and 3 times in CT43 cells in separate experiments. Dose dependence determination of the 7 hit compounds from the secondary library was carried out at least 3 times in CT60 cells and 2 times in CT43 cells in separate experiments.
The effects of the compounds were determined at 1.11, 3.33 and 10 μM concentrations after 4, 20 and 48 h using methods similar to the dose dependence. The CT60 cells were seeded in three 384 well plates at 600 cells/well in growth medium on day 1. To maintain the same density of cells at the final time point, compounds were added chronologically. […]

Structure (SMILES) | Average Filipin Assay @ 10 μM dose Fraction of Control [1] | decrease in the LSO compartment ratio after 4 hr treatment ([2]; 4 hr, 1.1, 3.3 and 10 μM tested) | Lowest Effective Dose (LSO Assay) (−3 SD @ 20 h) [2] [µM] | Average filipin intensity Fraction of control ([1]; 10 μM, 14 hit compounds from primary library) | shape of dose-response curve ([2]; 123 nM to 10 μM) | effect below solvent control at 123 nM [2] [SD]
CCN(CC)c1ccc(C=C2SC(=S)N(c3ccc(OC)cc3)C2=O)cc1 [Compound 2-a-3] | 0.75 ± 0.01 Fraction of Control | more than 3 SD | 3.33 |  |  | 
C=CCN1C(=O)C(=Cc2cc(C)n(-c3ccccc3)c2C)C(C(=O)OC)=C1C [Compound 2-a-15] | 0.79 ± 0.01 Fraction of Control |  | 3.33 |  |  | 
CCOc1cccc2cc(-c3csc(Nc4cccc(C(F)(F)F)c4)n3)c(=O)oc12 [Compound 1-a-14] |  |  |  | 1.24 ± 0.04 Fraction of control | unusual dose-response curve | 
O=[N+]([O-])c1cccc(C=NNc2nc(Nc3cccc4ccccc34)nc(N(c3ccccc3)c3ccccc3)n2)c1 [Compound 2-a-13] | 0.75 ± 0.02 Fraction of Control |  | 370 |  |  | 
FC(F)(F)COc1nc(NN=Cc2cccc(I)c2)nc(N(c2ccccc2)c2ccccc2)n1 [Compound 2-a-12] | 0.87 ± 0.01 Fraction of Control |  | 370 |  |  | 2
COc1ccccc1Nc1nc(Nc2ccccc2OC)nc(Nc2ccccc2OC)n1 [Compound 2-a-9] | 0.74 ± 0.01 Fraction of Control |  | 370 |  |  | 2
